Measured values from patent publication US20040039530A1, “Pharmacokinetic tool and method for predicting metabolism of a compound in a mammal” (priority 2003, published 2004).

Test: Hepatocyte assay: concentration versus time data of parent compound, fitted for Km, Vmax and Kd
Experimental: Traditionally, initial experiments were performed to get a “ball park” number around the Km, then additional studies performed “near” that concentration. A data analyst, or fitting expert, then took the data and determined the Km and Vmax. Some expertise is required to be able to interpret the initial studies and then to fit the data to determine Km. […] Especially preferred concentrations are 0.4, 2, 10, 50, 125 and 250 μM.
Equation 1 is the equation that incorporates transport and makes the assumption that the changes in concentration with time cannot be fully explained using the Michaelis-Menten equation alone. Kd·C is the transport term where Kd is the first order rate constant and C is the concentration outside of the hepatocyte or cell. dC/dt is the rate of metabolism, Vmax is the maximum possible rate of metabolism and Km is the Michaelis-Menten constant defined as concentration where dC/dt equals ½*Vmax. [formula]
The best fit lines and simulated data are obtained using a minimization algorithm capable of determining Vmax, Km, and Kd values that provide minimum deviation of the simulated data from the experimental data. In this example the minimization algorithms were completed using the computer based application, Kinetica®.
Briefly, the minimization algorithms uses the main function “mrqmin” that relies on several other functions to complete the analysis. This function assignees different initial conditions to fitted variables and picks the best set of results based on the minimal value of the computed “sum of squares”. Some statistical information can be collected in this routine as well. The “mrqmin” function performs one iteration of Marquardt method. Algorithmically, it is the same as listed in Numerical Recipes with modifications to parameter input, output and exchanges, and some modifications to intermediate computations. The “mrqmin” calls “mrqcof” function for some intermediate computations. […]
Goodness of fit is determined by evaluation of % CV, and percent unchanged parent compounds remaining at 240 minutes at 0.4 μM.

Structure (SMILES): Oc1ccc2c3c1O[C@H]1[C@@H](O)CC[C@@]4(O)[C@@H](C2)N(CC2CCC2)CC[C@]314 [Nalbuphine]
- Km (Initial concentrations, hepatocyte assay): 12.2 µM
- Km (Std (standardized) concentrations, hepatocyte assay): 10.9 µM
- Km (determined by non-linear fitting and minimization, compound-specific initial concentrations (Table 9)): 10 to 50 µM
